The supplement of paper PMC8149375

How the values were obtained:
Conditions in all cases: treatment: drug alone; 5 days
[1] = system: 769-P; assay: GI50, drug alone; higher = less potent
Experimental: (§1)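 Primary HTS: 8 RCC cell lines treated with 8 doses (up to 10 uM) of each library drug alone for 5 days; viability read by CellTiter-Glo and normalised to DMSO. GI50 was fitted with XLfit (4-parameter), AUC is the area under the dose-response curve, and minimum viability is the lowest fraction of DMSO viability across doses.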

[2] = system: 786-O; assay: GI50, drug alone; higher = less potent
Experimental: as §1

[3] = system: UO-31; assay: GI50, drug alone; higher = less potent
Experimental: as §1

[4] = system: ACHN; assay: GI50, drug alone; higher = less potent
Experimental: as §1

[5] = system: A498; assay: GI50, drug alone; higher = less potent
Experimental: as §1

[6] = system: SN12C; assay: GI50, drug alone; higher = less potent
Experimental: as §1

[7] = system: TK-10; assay: GI50, drug alone; higher = less potent
Experimental: as §1

[8] = system: CAKI-1; assay: GI50, drug alone; higher = less potent
Experimental: as §1

[9] = system: 769-P; assay: minimum viability across doses, drug alone, relative to DMSO (fraction); higher = less growth inhibition
Experimental: as §1

[10] = system: 786-O; assay: as above
Experimental: as §1

[11] = system: UO-31; assay: as above
Experimental: as §1

[12] = system: ACHN; assay: as above
Experimental: as §1

[13] = system: A498; assay: as above
Experimental: as §1

[14] = system: SN12C; assay: as above
Experimental: as §1

[15] = system: TK-10; assay: as above
Experimental: as §1

[16] = system: CAKI-1; assay: as above
Experimental: as §1

[17] = system: 769-P; assay: AUC of dose-response viability curve, drug alone (arbitrary (AUC of normalised viability)); higher = less growth inhibition
Experimental: as §1

[18] = system: 786-O; assay: as above
Experimental: as §1

[19] = system: UO-31; assay: as above
Experimental: as §1

[20] = system: ACHN; assay: as above
Experimental: as §1

[21] = system: A498; assay: as above
Experimental: as §1

[22] = system: SN12C; assay: as above
Experimental: as §1

[23] = system: TK-10; assay: as above
Experimental: as §1

[24] = system: CAKI-1; assay: as above
Experimental: as §1

Row | SMILES | GI50, drug alone [2] | GI50, drug alone [4] | GI50, drug alone [1] | GI50, drug alone [3] | GI50, drug alone [5] | GI50, drug alone [6] | GI50, drug alone [7] | GI50, drug alone [8] | minimum viability across doses [9] | minimum viability across doses [10] | minimum viability across doses [11] | minimum viability across doses [12] | minimum viability across doses [13] | minimum viability across doses [14] | minimum viability across doses [15] | minimum viability across doses [16] | AUC of dose-response viability curve [17] | AUC of dose-response viability curve [18] | AUC of dose-response viability curve [19] | AUC of dose-response viability curve [20] | AUC of dose-response viability curve [21] | AUC of dose-response viability curve [22] | AUC of dose-response viability curve [23] | AUC of dose-response viability curve [24]
1 | C#Cc1cccc(Nc2ncnc3cc(OCCOC)c(OCCOC)cc23)c1.Cl [Erlotinib HCl] | > 10000 nM | 1040 nM | 3.68 µM | > 10000 nM | > 10 µM | > 10 µM | 5250 nM | 3.61 µM | 0.39 | 0.549 | 0.961 | 0.137 | 0.915 | 0.731 | 0.471 | 0.183 | 2.66 | 3.37 | 3.8 | 2.43 | 3.55 | 3.46 | 2.59 | 2.99
2 | CO[C@H]1C[C@@H]2CC[C@@H](C)[C@@](O)(O2)C(=O)C(=O)N2CCCC[C@H]2C(=O)O[C@H]([C@H](C)C[C@@H]2CC[C@@H](OCCO)[C@H](OC)C2)CC(=O)[C@H](C)/C=C(\C)[C@@H](O)[C@@H](OC)C(=O)[C@H](C)C[C@H](C)/C=C/C=C/C=C/1C [Everolimus (RAD001)] | 3.85 nM | 278 nM | > 10 µM | 99.2 nM | > 10 µM | > 10 µM | > 10000 nM | 1.18 µM | 0.56 | 0.293 | 0.314 | 0.39 | 0.851 | 0.631 | 0.538 | 0.406 | 2.37 | 1.21 | 1.96 | 1.85 | 3.45 | 2.56 | 2.3 | 2.14
3 | CN1CC[C@H](c2c(O)cc(O)c3c(=O)cc(-c4ccccc4Cl)oc23)[C@H](O)C1.Cl [Flavopiridol hydrochloride] | 36.9 nM | 70.7 nM | 0.225 µM | 125 nM | 0.262 µM | 0.174 µM | 140 nM | 0.17 µM | 0.0149 | 0.00454 | 0.0096 | 0.00461 | 0.0135 | 0.0105 | 0.14 | 0.0716 | 1.84 | 0.837 | 1.74 | 1.27 | 1.92 | 1.63 | 1.57 | 1.85
4 | Cc1c(CN2CCN(C(=O)[C@H](C)O)CC2)sc2c(N3CCOCC3)nc(-c3cnc(N)nc3)nc12 [GDC-0980 (RG7422)] | 495 nM | 231 nM | 0.495 µM | 311 nM | 1.36 µM | 0.37 µM | 167 nM | 0.19 µM | 0.0688 | 0.0296 | 0.0186 | 0.0739 | 0.215 | 0.133 | 0.0656 | 0.0405 | 2.2 | 2.23 | 2.23 | 1.89 | 3.1 | 2.07 | 1.73 | 1.75
5 | COc1cc2ncnc(Nc3ccc(F)c(Cl)c3)c2cc1OCCCN1CCOCC1 [Gefitinib (Iressa)] | > 10000 nM | 1240 nM | > 10 µM | > 10000 nM | > 10 µM | > 10 µM | 1520 nM | 5.88 µM | 0.536 | 0.781 | 0.872 | 0.179 | 1.05 | 0.693 | 0.269 | 0.281 | 2.66 | 3.22 | 4.31 | 2.4 | 4.53 | 3.15 | 2.43 | 3.04
6 | CN1CCN(C2CCN(C(=O)Nc3cc(Oc4ccc(NC(=O)C5(C(=O)Nc6ccc(F)cc6)CC5)c(F)c4)ccn3)CC2)CC1 [Golvatinib (E7050)] | 4230 nM | 1510 nM | 9.71 µM | 9860 nM | > 10 µM | 7.83 µM | 2590 nM | 3.06 µM | 0.423 | 0.0352 | 0.471 | 0.0761 | 0.613 | 0.346 | 0.284 | 0.0988 | 3.55 | 2.78 | 5.28 | 2.67 | 4.37 | 3.38 | 2.56 | 3.05

Second part, led by results:

Row | GI50, drug alone [2] | GI50, drug alone [4] | SMILES | GI50, drug alone [1] | GI50, drug alone [3] | GI50, drug alone [5] | GI50, drug alone [6] | GI50, drug alone [7] | GI50, drug alone [8] | minimum viability across doses [9] | minimum viability across doses [10] | minimum viability across doses [11] | minimum viability across doses [12] | minimum viability across doses [13] | minimum viability across doses [14] | minimum viability across doses [15] | minimum viability across doses [16] | AUC of dose-response viability curve [17] | AUC of dose-response viability curve [18] | AUC of dose-response viability curve [19] | AUC of dose-response viability curve [20] | AUC of dose-response viability curve [21] | AUC of dose-response viability curve [22] | AUC of dose-response viability curve [23] | AUC of dose-response viability curve [24]
7 | 251 nM | 9240 nM | CC(C)NC[C@@H](C(=O)N1CCN(c2ncnc3c2[C@H](C)C[C@H]3O)CC1)c1ccc(Cl)cc1 [GDC-0068] | > 10 µM | 3090 nM | > 10 µM | > 10 µM | 2260 nM | 8.11 µM | 0.81 | 0.252 | 0.0182 | 0.529 | 0.82 | 0.758 | 0.375 | 0.52 | 3.51 | 1.88 | 3.66 | 2.85 | 4.05 | 2.98 | 2.3 | 3.21
8 | > 10000 nM | > 10000 nM | OCCn1cc(-c2ccc3c(c2)CC/C3=N\O)c(-c2ccncc2)n1 [GDC-0879] | > 10 µM | > 10000 nM | > 10 µM | > 10 µM | > 10000 nM | > 10 µM | 0.92 | 0.716 | 1.18 | 0.745 | 1.05 | 0.999 | 0.937 | 0.98 | 3.52 | 2.97 | 5.03 | 3.54 | 4.12 | 3.81 | 3.5 | 4.13
9 | 1530 nM | 690 nM | CS(=O)(=O)N1CCN(Cc2cc3nc(-c4cccc5[nH]ncc45)nc(N4CCOCC4)c3s2)CC1 [GDC-0941] | 1.54 µM | 2660 nM | 6.94 µM | 1.94 µM | 660 nM | 0.563 µM | 0.221 | 0.254 | 0.227 | 0.264 | 0.397 | 0.323 | 0.207 | 0.149 | 2.65 | 2.46 | 3.82 | 2.41 | 3.39 | 2.56 | 2.27 | 2.28
